The record followed here is EP4737449A1 (Changchun Genescience Pharmaceutical Co., Ltd., priority 2023, dated 2025).

Each structure is given as a SMILES string. Where two headings read alike, the source gives them in different places. Bounds are passed on as bounds.

One assay concerns the target T1, p53-Y220C mutant protein (Homo sapiens, UniProt P04637, Y220C).
T1 construct: The recombinant Y220C p53 DBD protein with his-tag
In words: In vitro DNA binding activity assay (TR-FRET). Type of assay: biochemical. The settings on record: concentration required to increase the binding activity of protein to DNA by 50%. In short, it runs like this: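 SC150, the compound concentration increasing p53-Y220C DNA binding by 50% relative to vehicle, came from background-corrected 665/615 nm TR-FRET ratios. His-tagged DBD and compound were preincubated 60 min at RT before biotin-DNA plus Eu-anti-His/streptavidin-d2 detection overnight in the dark.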
On the technique in general: TR-FRET usually uses a lanthanide donor and a delayed reading to cut background.

The target of assay [1] is CYP 3A4 enzyme in human liver microsomes (Homo sapiens, UniProt P08684). In words: CYP3A4 inhibition experiment in human liver microsomes. The procedure:
The inhibitory effects of the test compounds on CYP 3A4T (with testosterone as substrate) and 3A4M (with midazolam as substrate) in human liver microsomes were evaluated in vitro to assess the medication safety of the compounds.
This study used the human liver microsome system and the cytochrome P450 enzyme probe substrate recommended by FDA guidelines for in vitro drug interaction studies to investigate the inhibition of the CYP 3A4 enzyme in human liver microsomes by the test compounds.
Test group (TG): Human liver microsomes were incubated with different concentrations of test compounds, NADPH (final concentration 2.00 mM) and probe substrates of different sub-enzymes (Table 4) for 5 min.
Positive control group (PC): Human liver microsomes were incubated with inhibitors (Table 4), NADPH (final concentration 2.00 mM) and probe substrates of different sub-enzymes (Table 4) for 5 min. Table 4 Probe substrates of sub-enzymes, inhibitors and incubation systems
The system was pre-incubated at 37°C for 5 min, and then 15 µL of 8 mM NADPH solution preheated at 37°C for 5-10 min to start the reaction. After incubation of the 96-well plate at 37°C for 5 min, 180 µL of acetonitrile:methanol (ACN:MeOH=1:1) solution containing internal standard (IS) was added to terminate the reaction. […] 80 µL of the supernatant was taken, added to 120 µL of ultrapure water, shaken evenly, and then detected by LC-MS/MS.
199 µL of 0.2 mg/mL HLM and 1 µL of 1 mM positive control inhibitor (ketoconazole) working solutions were taken and mixed evenly. 30 µL of the drug-containing liver microsome solution was taken and added to a 96-well plate, then 10 µL of substrate working solution (20 µM midazolam) was added, in duplicate. The system was pre-incubated at 37°C for 5 min, and then 15 µL of 8 mM NADPH solution preheated at 37°C for 5-10 min to start the reaction. After incubation of the 96-well plate at 37°C for 5 min, 180 µL of ACN:MeOH(1:1) solution containing IS was added to terminate the reaction. […] 80 µL of the supernatant was taken, added to 120 µL of ultrapure water, shaken evenly, and then detected by LC-MS/MS.
4.2.5.1 The relative activity of CYP450 sub-enzymes at different concentrations was calculated by dividing the peak area ratio (analyte peak area/internal standard peak area) of metabolites in the presence of the test sample or positive control by the peak area ratio of metabolites in the solvent control sample in the absence of the test article or positive control, according to the following formula: [formula] [formula]
4.2.5.2 Half maximal inhibitory concentration (IC50) was obtained by fitting according to the following model formula using Prism software: Y = Bottom + (Top−Bottom)/(1+10^(∧)((LogIC50−X)×HillSlope)) [formula]
X is the test sample concentration converted to logarithm (Log µM), Y is the relative activity (% of NC), Bottom and Top represent the percentage of enzyme activity at the bottom platform and top platform of the curve, respectively, and HillSlope represents the slope; to optimize the fitting effect, the use of other (nonlinear) dose-response models for fitting is not considered as a deviation from the protocol.
A general note: Liver microsomes are a subcellular fraction often used to study metabolism.

The subject of the next assay is NUGC-3 cells. Description: NUGC-3 cell proliferation assay (CTG, 7 days). The class given is cell-based, human. Put shortly:
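Cells (200/well) in 1640 medium with 10% serum exposed to 10-point, 3-fold DMSO dilutions (duplicates) for 7 days at 37°C. Viability read by CellTiter-Glo luminescence; % inhibition normalized to DMSO and blank, IC50 from variable-slope nonlinear fit.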

Where [2] appears, read: CYP 3A4M IC50, human liver microsomes, midazolam as substrate.
[3] abbreviates: CYP 3A4T IC50, human liver microsomes, testosterone as substrate.
Where [4] appears, read: Homo sapiens, NUGC-3, 168 h, NUGC-3 cell proliferation, 7 days, CTG, read-out: IC50.

Chain of CYP 3A4 enzyme in human liver microsomes (P08684 whole entry): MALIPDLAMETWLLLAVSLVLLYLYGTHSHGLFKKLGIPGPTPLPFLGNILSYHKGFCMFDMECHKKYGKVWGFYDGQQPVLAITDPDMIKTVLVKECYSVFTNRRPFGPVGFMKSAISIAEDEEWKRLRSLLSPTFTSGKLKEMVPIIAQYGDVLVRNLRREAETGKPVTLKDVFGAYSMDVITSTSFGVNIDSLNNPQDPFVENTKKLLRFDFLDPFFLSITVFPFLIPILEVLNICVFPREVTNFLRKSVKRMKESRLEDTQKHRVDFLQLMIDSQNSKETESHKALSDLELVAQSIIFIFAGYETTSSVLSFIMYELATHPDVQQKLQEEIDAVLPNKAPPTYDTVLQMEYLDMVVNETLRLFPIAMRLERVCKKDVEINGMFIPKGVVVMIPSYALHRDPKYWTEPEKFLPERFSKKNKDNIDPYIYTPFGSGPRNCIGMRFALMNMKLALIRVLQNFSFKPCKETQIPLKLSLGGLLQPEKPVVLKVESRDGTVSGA

Regarding `CC(n1ncc(C(=O)NCC#Cc2nn3c(N[C@@H]4CCN(C)C[C@@H]4F)cccc3c2CC(F)(F)F)c1N)C(F)(F)F` (single isomer, unassigned) [Compound 355A], at p53-Y220C mutant protein, the SC150 is given as 7 nM. Moreover, the IC50 (in general, the concentration that inhibits the measured activity by half) in assay [1] (setting [2]) is over 30 µM; in assay [1] (setting [3]) it was 14.1 µM; in the assay with NUGC-3 cells (setting [4]), 167 nM.

With `CC(n1ncc(C(=O)NCC#Cc2nn3c(N[C@@H]4CCN(C)C[C@@H]4F)cccc3c2CC(F)(F)F)c1N)C(F)(F)F` (single isomer, unassigned) [Compound 355B], the SC150 at p53-Y220C mutant protein worked out at 16 nM. Besides, the IC50 in assay [1] (setting [2]) was 12.5 µM; in assay [1] (setting [3]), 13.7 µM; in the assay on NUGC-3 cells (NUGC-3 cell proliferation, 7 days, CTG, read-out: IC50) it was 154 nM.

Take `CCn1cc(C(=O)NCC#Cc2nn3c(N[C@@H]4CCN(C)C[C@@H]4F)cccc3c2CC(F)(F)F)cn1` [Compound 004, 1-ethyl-N-[3-(7-{[(3S,4R)-3-fluoro-1-methylpiperidin-4-yl]amino}-3-(2,2,2-trifluoroethyl)pyrazolo[1,5-a]pyridin-2-yl)prop-2-yn-1-yl]-1H-pyrazole-4-carboxamide]: on p53-Y220C mutant protein, the SC150 is reported as 6 nM. The IC50 in assay [1] (setting [2]) and in assay [1] (setting [3]) was over 30 µM throughout.

`COC(C)(C)Cn1cc(C(=O)NCC#Cc2nn3c(N[C@@H]4CCN(C)C[C@@H]4F)cccc3c2CC(F)(F)F)cn1` [Compound 039, N-[3-(7-{[(3S,4R)-3-fluoro-1-methylpiperidin-4-yl]amino}-3-(2,2,2-trifluoroethyl)pyrazolo[1,5-a]pyridin-2-yl)prop-2-yn-1-yl]-1-(2-methoxy-2-methylpropyl)-1H-pyrazole-4-carboxamide] gave an SC150 on p53-Y220C mutant protein of 10 nM. Moreover, the IC50 in assay [1] (setting [2]) came to 20.2 µM; in assay [1] (setting [3]), 27.8 µM.

In turn, `CN1CC[C@@H](Nc2cccc3c(CC(F)(F)F)c(C#CCNC(=O)c4ccn(C(C)(C)C)c4)nn23)[C@@H](F)C1` [Compound 087, 1-(tert-butyl)-N-(3-(7-{[(3S,4R)-3-fluoro-1-methylpiperidin-4-yl]amino}-3-(2,2,2-trifluoroethyl)pyrazolo[1,5-a]pyridin-2-yl)prop-2-yn-1-yl)-1H-pyrrole-3-carboxamide] showed an SC150 at p53-Y220C mutant protein of 19 nM. In addition, the results for the concentration for half-maximal inhibition (IC50) (in assay [1] (setting [2]); in assay [1] (setting [3]); in the assay with NUGC-3 cells (setting [4])) were over 30 µM, over 30 µM and 1370 nM, respectively.

Take `CN1CC[C@@H](Nc2cccc3c(CC(F)(F)F)c(C#CCNC(=O)c4cnn5c4CC(C)(C)C5)nn23)[C@@H](F)C1` [Compound 146, N-[3-(7-{[(3S,4R)-3-fluoro-1-methylpiperidin-4-yl]amino}-3-(2,2,2-trifluoroethyl)pyrazolo[1,5-a]pyridin-2-yl)prop-2-yn-1-yl]-5,5-dimethyl-5,6-dihydro-4H-pyrrolo[1,2-b]-1Hpyrazole-3-carboxamide]: the SC150 at p53-Y220C mutant protein is recorded as 13 nM. For the same molecule, the IC50 in assay [1] (setting [2]) is 9.7 µM; in assay [1] (setting [3]), 10.5 µM; in the assay with NUGC-3 cells (Homo sapiens, NUGC-3, 168 h), 955 nM.

On p53-Y220C mutant protein, `CN1CC[C@@H](Nc2cccc3c(CC(F)(F)F)c(C#CCNC(=O)c4cnn(C5(C)CC5)c4N)nn23)[C@@H](F)C1` [Compound 263, 5-amino-N-[3-(7-{[(3S,4R)-3-fluoro-1-methylpiperidin-4-yl]amino}-3-(2,2,2-trifluoroethyl)pyrazolo[1,5-a]pyridin-2-yl)prop-2-yn-1-yl]-1-(1-methylcyclopropyl)-1H-pyrazole-4-carboxamide] displayed an SC150 of 4 nM. In addition, the IC50 in assay [1] (setting [2]) was over 30 µM; in assay [1] (setting [3]) it was 16.4 µM; in the assay on NUGC-3 cells (setting [4]), 268 nM.

The molecule `CN1CC[C@@H](Nc2cccc3c(CC(F)(F)F)c(C#CCNC(=O)c4cnn5c4COCC5)nn23)[C@@H](F)C1` [Compound 274, N-[3-(7-{[(3S,4R)-3-fluoro-1-methylpiperidin-4-yl]amino}-3-(2,2,2-trifluoroethyl)pyrazolo[1,5-a]pyridin-2-yl)prop-2-yn-1-yl]-6,7-dihydro-4H-pyrazolo[5,1-c][1,4]oxazine-3-carboxamide] yielded an SC150 at p53-Y220C mutant protein of 12 nM. Moreover, the IC50 was over 30 µM in assay [1] (setting [2]), over 30 µM in assay [1] (setting [3]) and 611 nM in the assay with NUGC-3 cells (setting [4]).

On p53-Y220C mutant protein, `CN1CC[C@@H](Nc2cccc3c(CC(F)(F)F)c(C#CCNC(=O)c4ccc(N5CCOCC5)nc4)nn23)[C@@H](F)C1` [Compound 275, N-[3-(7-{[(3S,4R)-3-fluoro-1-methylpiperidin-4-yl]amino}-3-(2,2,2-trifluoroethyl)pyrazolo[1,5-a]pyridin-2-yl)prop-2-yn-1-yl]-(6-morpholin-4-yl)pyridine-3-carboxamide] showed an SC150 of 27 nM. The IC50 in assay [1] (setting [2]) is over 30 µM; in assay [1] (setting [3]), over 30 µM; with NUGC-3 cells (setting [4]), 901 nM.

As to `CN1CC[C@@H](Nc2cccc3c(CC(F)(F)F)c(C#CCNC(=O)c4cnn5c4CCCC5)nn23)[C@@H](F)C1` [Compound 276, N-[3-(7-{[(3S,4R)-3-fluoro-1-methylpiperidin-4-yl]amino}-3-(2,2,2-trifluoroethyl)pyrazolo[1,5-a]pyridin-2-yl)prop-2-yn-1-yl]-4,5,6,7-tetrahydropyrazolo[1,5-a]pyridine-3-carboxamide], at p53-Y220C mutant protein, the SC150 is 18 nM. In addition, the figures for the IC50 (in assay [1] (setting [2]); in assay [1] (setting [3]); with NUGC-3 cells (setting [4])) were 17.4 µM, over 30 µM and 856 nM, respectively.

In turn, `CCn1ccc(C(=O)NCC#Cc2nn3c(N[C@@H]4CCN(C)C[C@@H]4F)cccc3c2CC(F)(F)F)c1` [Compound 277, 1-ethyl-N-[3-(7-{[(3S,4R)-3-fluoro-1-methylpiperidin-4-yl]amino}-3-(2,2,2-trifluoroethyl)pyrazolo[1,5-a]pyridin-2-yl)prop-2-yn-1-yl]-1H-pyrrole-3-carboxylic acid amide] had an SC150 at p53-Y220C mutant protein of 14 nM. Moreover, the IC50 worked out at 12.4 µM in assay [1] (setting [2]); 15.8 µM in assay [1] (setting [3]); 726 nM with NUGC-3 cells (Homo sapiens, NUGC-3, 168 h).

Turning to `Cc1cc(C(=O)NCC#Cc2nn3c(N[C@@H]4CCN(C)C[C@@H]4F)cccc3c2CC(F)(F)F)co1` [Compound 278, N-[3-(7-{[(3S,4R)-3-fluoro-1-methylpiperidin-4-yl]amino}-3-(2,2,2-trifluoroethyl)pyrazolo[1,5-a]pyridin-2-yl)prop-2-yn-1-yl]-5-methylfuran-3-carboxamide], on p53-Y220C mutant protein, the SC150 is given as 24 nM. Besides, the half-maximal inhibitory concentration (IC50) was determined as 14.7 µM in assay [1] (setting [2]), 13 µM in assay [1] (setting [3]) and 1120 nM with NUGC-3 cells (setting [4]).

At p53-Y220C mutant protein, `COCCn1ccc(C(=O)NCC#Cc2nn3c(N[C@@H]4CCN(C)C[C@@H]4F)cccc3c2CC(F)(F)F)c1` [Compound 279, N-[3-(7-{[(3S,4R)-3-fluoro-1-methylpiperidin-4-yl]amino}-3-(2,2,2-trifluoroethyl)pyrazolo[1,5-a]pyridin-2-yl)prop-2-yn-1-yl]-1-(methoxyethyl)-1H-pyrrole-3-carboxamide] showed an SC150 of 9 nM. Further, the IC50 in assay [1] (setting [2]) was found to be 18 µM; in assay [1] (setting [3]) it was 24.3 µM; in the assay with NUGC-3 cells (setting [4]) it was 672 nM.

Take `CCC(C)(C)n1ncc(C(=O)NCC#Cc2nn3c(N[C@@H]4CCN(C)C[C@@H]4F)cccc3c2CC(F)(F)F)c1N` [Compound 351]: on p53-Y220C mutant protein, the SC150 is given as 7 nM. Further, the IC50 was found to be 18.1 µM in assay [1] (setting [2]) and 22 µM in assay [1] (setting [3]).
